# Assays:
# urine flow = assay: renal effects (urine flow), intraduodenal administration; type: in vivo, Sprague-Dawley rats; details: test run 3 times
# Experimental: The tetrahydroquinoxaline produced in Example 1 was tested for renal and blood pressure effects using the following method.
# Young male (20-24 weeks old) Sprague-Dawley rats were used. Under ketamine (60 mg/kg b.wt. i.m.) and pentobarbital (i.p. to effect) anesthesia, medical grade plastic tubes were implanted into the abdominal aorta and vena cava via the femoral vessels. In addition, a Silastic-covered stainless steel cannula were sewn in the urinary bladder. After the surgery, the rats were housed individually and were allowed free access to food and water until the day of the experiment.
# For about 7 to 10 days before surgery and during recovery, the rats were accustomed to a restraining cage by placement in the cage for 2 to 3 hours every 2nd and 3rd day. The cage was designed for renal clearance studies (a model G Restrainer sold by Braintree Scientific, Inc., Braintree, Mass.). The animals' adjustment to the cage was judged by the stability of blood pressure and heart rate.
# For an experiment, a rat was placed in the restraining cage, and the arterial line was connected to a Statham pressure transducer and a Beckman Dynograph R61 to monitor the mean arterial blood pressure, hereinafter referred to as MAP. The venous line was connected to an infusion pump system for infusion of replacement fluid. The tetrahydroquinoxaline was administered intraduodenally by cannula. The bladder cannula was extended with a silastic tube to facilitate collection of urine in preweighed tubes. The volume of urine was measured gravimetrically. Body weight was recorded before and after the experiment.
# Throughout the experiments, 0.9% NaCl containing 10% polyfructosan (Inutest) and 1% sodium PAH was infused at a rate of 20 microliters/min. An equilibration period of 60 minutes was followed by two consecutive 30 minute control clearance periods. Then, the tetrahydroquinoxaline was administered for 90 minutes. Urine collection was resumed 10 minutes after the start of tetrahydroquinoxaline administration. By this time the washout of the bladder cannula dead space (approximately 200 microliters) was completed. Three additional clearance measurements were made. Blood samples (150 microliters) were collected at the midpoint of urine collections. Plasma was separated and saved for analyses, and the cells were resuspended in saline and returned to the animals. Water and sodium loss was carefully replaced i.v. by a variable speed infusion pump.
# [1] = system: Alpha 3 Adrenergic Receptors; assay: Rabbit Saphenous Vein: Alpha 3 Adrenergic Receptors; type: cell-based, albino rabbit; details: rabbit saphenous vein rings, 37° C., field stimulated; n = number of test runs
# Experimental: (§1) The tetrahydroquinoxalines produced in Examples 1 to 3 were tested for activity using the following in vitro methods.
# Rabbit Saphenous Vein: Alpha 3 Adrenergic Receptors
# Thoracic aorta and saphenous vein specimens were obtained from albino rabbits that were killed by CO2 inhalation. The aorta and saphenous vein were each cut into 3 mm rings. Tissues were placed in Krebs-Hensleit solution of the following composition (millimolar): NaCl 119; KCl 4.7; MgSO4 1.5, KH2 PO4 1.2; CaCl2 2.5; NaHCO3 25 and glucose 11.0. The solution also contained cocaine (0.1 millimolar) to block neuronal uptake and EDTA (30 micromolar) and ascorbic acid (5 micromolar) to prevent oxidation of the tetrahydroquinoxaline being tested. Tissues were hung in 10 ml organ baths and tension was measured via Grass FT03 force-displacement transducers. Resting tension was 1 g and 2 g for the saphenous vein and aorta, respectively. The solution was gassed with 95% O2 and 5% CO2 and maintained at 37° C. Tissues were allowed to equilibrate for 2 hours before stimulation and the cumulative addition of the tetrahydroquinoxaline being treated was started. Tissue stimulation was performed as with the rabbit vas deferens, described above. The contractions of the tissue were recorded isometrically as for the rabbit vas deferens assay. […]
# [2] = molecular target: T1, Alpha 2 Adrenergic Receptors (Oryctolagus cuniculus, UniProt Q5ZQK3); assay: Rabbit Vas Deferens: Alpha 2 Adrenergic Receptors; type: cell-based, New Zealand white rabbit; details: 35° C., field stimulated, 50% reduction in response height, n = number of test runs
# T1 construct: from tissue; host or cells: New Zealand white rabbit vas deferens, prostatic end, field stimulated
# T1 sequence (Q5ZQK3 1-451): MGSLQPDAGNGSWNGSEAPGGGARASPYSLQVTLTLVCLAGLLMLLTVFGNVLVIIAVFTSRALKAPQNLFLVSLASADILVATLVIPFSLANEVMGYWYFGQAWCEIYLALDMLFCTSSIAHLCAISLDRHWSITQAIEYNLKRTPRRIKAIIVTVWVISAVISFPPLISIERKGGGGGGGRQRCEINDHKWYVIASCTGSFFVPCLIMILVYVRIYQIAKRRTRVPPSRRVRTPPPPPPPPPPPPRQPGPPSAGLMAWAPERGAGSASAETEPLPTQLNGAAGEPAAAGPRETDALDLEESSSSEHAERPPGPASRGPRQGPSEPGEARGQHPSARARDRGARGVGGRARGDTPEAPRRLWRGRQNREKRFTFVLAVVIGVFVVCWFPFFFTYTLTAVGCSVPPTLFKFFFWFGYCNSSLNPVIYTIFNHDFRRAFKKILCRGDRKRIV
# Experimental: as §1
# Rabbit Vas Deferens: Alpha 2 Adrenergic Receptors
# New Zealand white rabbits (2-3 kg) were killed by CO2 inhalation and the vasa deferentia removed. The prostatic ends of the vasa deferentia (2-3 cm lengths) were mounted between platinum ring electrodes in 9 ml organ baths and bathed in Krebs bicarbonate solution of the following composition (millimolar): NaCl 118.0; KCl 4.7; CaCl2 2.5; MgSO4 1.2; KH2 PO4 1.2; glucose 11.0; NaHCO3 25.0; which solution was maintained at 35° C. and bubbled with 95% O2 and 5% CO2. The initial tension of the vas deferens was 0.5 g. The tissues were left to equilibrate for 30 minutes before stimulation was started. Vasa were then field stimulated (0.1 Hz, 2 ms pulse width at 90 mA) using a square wave stimulator (WPI A310 Accupulser with A385 stimulus). […] Cumulative concentration-response curves were obtained for the tetrahydroquinoxaline being tested with a 4 minute contact time at each concentration. The reduction in response height was measured and expressed as a percentage of the height of the response before the addition of tetrahydroquinxoaline. Concentration response curves for each of tetrahydroquinoxalines were plotted. The effective concentration required for a 50% reduction in response height, expressed as EC50, were obtained from these curves and are set forth below.
compound,measurement,setting,value
"Brc1c(NC2=NCCN2)ccc2c1NCCN2 [Example 1, 5-Bromo-6-(2-imidazolin-2-ylamino)-1,2,3,4-tetrahydroquinoxaline]",Increase in Urine Flow,urine flow; 0.01 mg/kg,0 microliters/min./100 g of body
same,Increase in Urine Flow,urine flow; 0.03 mg/kg,4 microliters/min./100 g of body
same,Increase in Urine Flow,"urine flow; 0.1 mg/kg, P less than 0.05",16 microliters/min./100 g of body
same,Increase in Urine Flow,"urine flow; 0.3 mg/kg, P less than 0.05",24 microliters/min./100 g of body
same,Increase in Urine Flow,"urine flow; 1 mg/kg, P less than 0.05",32 microliters/min./100 g of body
same,EC50,[1],92 ± 19 nM
same,EC50,[2],1.75 nM
